Measured values taken from patent US7608724B2, “Antibacterial and/or antiprotozoal nitromidazole derivative compounds with urease inhibitor activity, process for preparing these compounds and use in pharmaceutical compositions and medicines” (EMS S.A., priority 2003, dated 2009).

Assays:
[1] = tested on: Salmonella typhimurium T-100 strain; assay: Ames Test without metabolic activation (−S9), mutagenic activity; format: cell-based; conditions: for revertant colonies per plate (mean ± standard deviation): −S9, T-100 strain; for mutagenic rate (RM): −S9, positive response ≧2
Experimental: The mutagenic activity of the compounds were evaluated by The Ames Test without metabolic activation (−S9), with Salmonella typhimurium T-100 strain. The test is based in the fact that indicating S. typhimurium strains are sensitive to substances capable of inducing different kinds of mutation. In the presence of mutagenic agents, these strains revert the character of histidine auxotrophic synthesis, and start forming colonies in a medium were this aminoacid is absent. The mutagenic activity of a compound as its concentration function is established by counting the number of colonies per plate.
The final data obtained were analyzed by using Salanal software (Salmonella Assay Analysis) Version 1.0 from Research Triangle Institute, RTP, North Carolina, USA. This software allows to evaluate the dose-answer response by performing an analysis of variance (ANOVA f-test) between the mean revertants number in the different tested concentrations (doses) and the negative control, followed by a linear regression. […] The slope of the linear part of response-dosage curve is also furnished by the program and it corresponds to the number of revertants induced per mg of the sample analyzed.
MR is calculated by the following equation: […]

urease = assay: Urease inhibiting test (phenol red, formation of ammonium from urea); format: biochemical; conditions: molar concentration of 30 nM
Experimental: Urease inhibition is evaluated by the assay based on RUÍZ-HERRERA, J; GONZALEZ, L. A (1969) and has the objective to verify in the visible spectra, by using phenol red as indicator, the formation of ammonium from urea according to the following reaction: […]

| Compound | revertant colonies per plate (mean ± standard deviation) ([1]; 2.9 (mM)/plate) [colonies per plate] | mutagenic rate (RM) ([1]; 2.9 (mM)/plate) | revertant colonies per plate (mean ± standard deviation) ([1]; 14.6 (mM)/plate) [colonies per plate] | mutagenic rate (RM) ([1]; 14.6 (mM)/plate) | revertant colonies per plate (mean ± standard deviation) ([1]; 29.2 (mM)/plate) [colonies per plate] | mutagenic rate (RM) ([1]; 29.2 (mM)/plate) | revertant colonies per plate (mean ± standard deviation) ([1]; 58.4 (mM)/plate) [colonies per plate] | mutagenic rate (RM) ([1]; 58.4 (mM)/plate) | revertant colonies per plate (mean ± standard deviation) ([1]; 116.9 (mM)/plate) [colonies per plate] | mutagenic rate (RM) ([1]; 116.9 (mM)/plate) | mutagenic activity compared with metronidazole parent drug or its monosuccinate ester (example 1) ([1]; FIG. 1, from table 1) | Urease inhibiting percentage (urease; 1 minute) [%] | Urease inhibiting percentage (urease; 2 minutes) [%] | Urease inhibiting percentage (urease; 3 minutes) [%] |
| --- | --- | --- | --- | --- | --- | --- | --- | --- | --- | --- | --- | --- | --- | --- |
| Cc1ncc([N+](=O)[O-])n1CCOC(=O)CCC(=O)NC(=S)NC(=O)CCC(=O)OCCn1c([N+](=O)[O-])cnc1C [Example 5, Bis[2-(2-methyl-5-nitro-1H-imidazol-1-yl)ethyl]4,4′[(thioxomethylene)diimine]bis(4-oxobutanoate)] | 162 ± 29 | RM = 1.3 | 316 ± 19 | RM = 2.5 | 606 ± 94 | RM = 4.8 | 1095 ± 100 | RM = 8.7 | 1582 ± 79 | RM = 12.5 | very inferior | 74 | 67 | 65 |
| Cc1ncc([N+](=O)[O-])n1CCO [Metronidazole, 2-(2-methyl-5-nitro-1H-imidazol-1-yl)ethanol] |  |  |  |  |  |  |  |  |  |  |  | 6 | 7 | 7 |
| NC(N)=S [Tiourea, thiourea] |  |  |  |  |  |  |  |  |  |  |  | 23 | 16 | 17 |
